Among the data in patent publication US7872005B2, “2-substituted heteroaryl compounds” (Synta Pharmaceuticals Corporation, priority 2004, dated 2011) are IC50 values, retold here.

Where only a bound is given, the exact number is not on record here.

As a reminder, the IC50 is the point on the concentration scale where inhibition reaches its midpoint.

In this experiment the test system is IL-12 production in human PBMC or THP-1 cells. The experiment is described as follows: In vitro inhibition of IL-12 production in stimulated human PBMC or THP-1 cells (ELISA). It counts as cell-based. As to conditions: representative in vitro IC50 data. From the text:
The biological activities of a heterocyclic compound can be evaluated by a number of cell-based assays. One of such assays can be conducted using cells from human peripheral blood mononuclear cells (PBMC) or human monocytic cell line (THP-1). The cells are stimulated with a combination of human interferon-γ (IFNγ) and lipopolysaccharide or a combination of IFNγ and Staphylococcus aureus Cowan I in the presence of a test compound. The level of inhibition of IL-12 production can be measured by determining the amount of p70 by using a sandwich ELISA assay with anti-human IL-12 antibodies. IC50 of the test compound can then be determined. Specifically, PBMC or THP-1 cells are incubated with the test compound. Cell viability was assessed using the bioreduction of MTS [3-(4,5-dimethylthiazol-2-yl)-5-(3-carboxymethoxyphenyl)-2-(4-sulfophenyl)-2H-tetrazolium] (Promega, Madison, Wis.).
Reagents. Staphylococcus aureus Cowan I (SAC) was obtained from Calbiochem (La Jolla, Calif.), and lipopolysaccharide (LPS, Serratia marscencens) was obtained from Sigma (St. Louis, Mo.). Human and mouse recombinant IFNγ were purchased from Boehringer Mannheim (Mannheim, Germany) and Pharmingen (San Diego, Calif.), respectively.
Human In Vitro Assay. Human PBMC were isolated by centrifugation using Ficoll-Paque (Pharmacia Biotech, Uppsala, Sweden) and prepared in RPMI medium supplemented with 10% fetal calf serum (FCS), 100 U/mL penicillin, and 100 μg/mL streptomycin. PBMC were plated in wells of a 96-well plate at a concentration of 5×10^5 cells/well, and primed by adding IFNγ (30 U/mL) for 22 h and stimulated by adding LPS (1 μg/mL), or by adding IFNγ (100 U/mL) and then stimulated by adding SAC (0.01%). A test pyrimidine compound was dissolved in DMSO, and added to wells of the 96-well plate. The final DMSO concentration was adjusted to 0.25% in all cultures, including the compound-free control. Human THP-1 cells were plated in wells, primed by adding IFNγ (100 U/mL) for 22 h and stimulated by adding SAC (0.025%) in the presence of different concentrations of the pyrimidine compound. Cell-free supernatants were taken 18 h later for measurement of cytokines. Cell viability was assessed using the bioreduction of MTS. Cell survival was estimated by determining the ratio of the absorbance in compound-treated groups versus compound-free control.
The supernatant was assayed for the amount of IL-12p40, IL-12p70, or IL-10 by using a sandwich ELISA with anti-human antibodies, i.e., a Human IL-12 p40 ELISA kit from R&D Systems (Berkeley, Calif.), and a Human IL-12 p70 or IL-10 ELISA kit from Endogen (Cambridge, Mass.). Assays were based on the manufacturer's instructions.
The biological activities of pyrimidine compounds were tested on human PBMC or THP-1 cells. Unexpectedly, some of the test compounds have IC50 values as low as <1 nM.
On the technique in general: An ELISA detects its analyte on a solid surface through an enzyme-linked reagent.
Take `Cc1cccc(/C=N/Nc2cc(N3CCOCC3)nc(CCCOC(=O)Nc3ccc([N+](=O)[O-])cc3)n2)c1` [Compound 7, (4-Nitro-phenyl)-carbamic acid 3-{4-[N′-(3-methyl-benzylidene)-hydrazino]-6-morpholin-4-yl-pyrimidin-2-yl}-propyl ester]: the IC50 was below 0.025 µM.

With `Cc1cccc(/C=N/Nc2cc(N3CCOCC3)nc(CCCOC(=O)Nc3ccccc3F)n2)c1` [Compound 6, (2-Fluoro-phenyl)-carbamic acid 3-{4-[N′-(3-methyl-benzylidene)-hydrazino]-6-morpholin-4-yl-pyrimidin-2-yl}-propyl ester], the half-inhibitory concentration (IC50) is below 0.025 µM. As for `Cc1cccc(/C=N/Nc2cc(N3CCOCC3)nc(CCCOC(=O)NC3CCCCC3)n2)c1` [Compound 5, Cyclohexyl-carbamic acid 3-{4-[N′-(3-methyl-benzylidene)-hydrazino]-6-morpholin-4-yl-pyrimidin-2-yl}-propyl ester], the IC50 was below 0.025 µM.

Take `Cc1cccc(/C=N/Nc2cc(N3CCOCC3)nc(CCCOC(=S)Nc3cccnc3)n2)c1` [Compound 9, Pyridin-3-yl-thiocarbamic acid O-(3-{4-[N′-(3-methyl-benzylidene)-hydrazino]-6-morpholin-4-yl-pyrimidin-2-yl}-propyl) ester]: the half-maximal inhibitory concentration (IC50) was below 0.025 µM. `Cc1cccc(/C=N/Nc2cc(N3CCOCC3)nc(CCSc3nnnn3CCN(C)C)n2)c1` [Compound 18, Dimethyl-{2-[5-(2-{4-[N′-(3-methyl-benzylidene)-hydrazino]-6-morpholin-4-yl-pyrimidin-2-yl}-ethylsulfanyl)-tetrazol-1-yl]-ethyl}-amine]: the IC50 was below 0.025 µM.

In the case of `Cc1cccc(/C=N/Nc2cc(N3CCOCC3)nc(CCCOC(=O)Nc3cccc(C(F)(F)F)c3)n2)c1` [Compound 2, (3-Trifluoromethyl-phenyl)-carbamic acid 3-{4-[N′-(3-methyl-benzylidene)-hydrazino]-6-morpholin-4-yl-pyrimidin-2-yl}-propyl ester], the IC50 was below 0.025 µM. For the molecule `Cc1cccc(/C=N/Nc2cc(N3CCOCC3)nc(OCCOC(=O)Nc3cccnc3)n2)c1` [Compound 106, Pyridin-3-yl-carbamic acid 2-{4-[N′-(3-methyl-benzylidene)-hydrazino]-6-morpholin-4-yl-pyrimidin-2-yloxy}-ethyl ester], the IC50 was below 0.025 µM.
